Numbered stars: 1 amine (or outer) side, 2 acyl side, 3 side chain; on linkers, the order of the positions; unused ones are H or OH. Side chains are listed from the residue outwards. Peptide text beside a SMILES is read from it. * marks the point of attachment. γGlu = O=C(O)[C@H](CCC(=O)[*:2])N[*:1]; Palmitoyl = CCCCCCCCCCCCCCCC(=O)*; Ahx = NCCCCCC(=O)O
Columns and labels:
Test in all cases: cAMP activity assay in assay medium (assay 1)
Assay type in all cases: cell-based
Human GLP1R = Human GLP1R (Homo sapiens, UniProt P43220); parameters: expressed in transfected cells; settings: assay medium; Table 4; read-out: hGLP1R EC50
Sequence of Human GLP1R (P43220 24-463): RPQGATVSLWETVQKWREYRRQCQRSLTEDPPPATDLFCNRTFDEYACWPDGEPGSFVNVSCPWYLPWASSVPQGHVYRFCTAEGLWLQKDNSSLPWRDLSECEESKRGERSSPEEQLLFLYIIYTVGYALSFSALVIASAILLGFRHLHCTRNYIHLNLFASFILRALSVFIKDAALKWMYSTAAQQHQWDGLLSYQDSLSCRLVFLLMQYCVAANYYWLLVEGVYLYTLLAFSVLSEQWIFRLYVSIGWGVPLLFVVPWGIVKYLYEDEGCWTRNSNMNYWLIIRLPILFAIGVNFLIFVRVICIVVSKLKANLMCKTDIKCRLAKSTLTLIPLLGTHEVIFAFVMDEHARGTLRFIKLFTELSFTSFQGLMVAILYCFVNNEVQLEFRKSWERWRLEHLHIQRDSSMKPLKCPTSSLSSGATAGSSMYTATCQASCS
Excerpt: (§1) Biological Activity of Peptides in Cell-Based cAMP Activity Assay (Assay 1):
(§2) All sample dilutions were made in duplicate.

Human GlucR = biological target: T1, Human GlucR (Homo sapiens, UniProt P47871); settings: assay medium; Table 4; read-out: hGlucR EC50
T1 construct: expressed in transfected cells
T1 sequence (P47871 26-477): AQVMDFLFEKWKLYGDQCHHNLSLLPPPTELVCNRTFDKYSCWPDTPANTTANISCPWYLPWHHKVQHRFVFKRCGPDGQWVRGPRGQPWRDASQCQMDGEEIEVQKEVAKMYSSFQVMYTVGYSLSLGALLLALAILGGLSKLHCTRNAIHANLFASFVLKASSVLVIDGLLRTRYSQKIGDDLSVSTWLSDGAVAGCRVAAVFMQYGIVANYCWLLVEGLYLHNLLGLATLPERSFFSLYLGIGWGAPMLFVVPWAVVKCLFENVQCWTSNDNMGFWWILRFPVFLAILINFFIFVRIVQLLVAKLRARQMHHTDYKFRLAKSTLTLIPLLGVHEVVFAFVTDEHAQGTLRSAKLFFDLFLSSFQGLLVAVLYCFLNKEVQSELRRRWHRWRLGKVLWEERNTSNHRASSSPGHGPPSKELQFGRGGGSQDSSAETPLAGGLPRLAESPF
Excerpt: as §1, §2

Human GIPr = biological target: T2, Human GIPr (Homo sapiens, UniProt P48546); settings: assay medium; Table 4; read-out: hGIPR EC50
T2 construct: expressed in transfected cells
T2 sequence (P48546 22-466): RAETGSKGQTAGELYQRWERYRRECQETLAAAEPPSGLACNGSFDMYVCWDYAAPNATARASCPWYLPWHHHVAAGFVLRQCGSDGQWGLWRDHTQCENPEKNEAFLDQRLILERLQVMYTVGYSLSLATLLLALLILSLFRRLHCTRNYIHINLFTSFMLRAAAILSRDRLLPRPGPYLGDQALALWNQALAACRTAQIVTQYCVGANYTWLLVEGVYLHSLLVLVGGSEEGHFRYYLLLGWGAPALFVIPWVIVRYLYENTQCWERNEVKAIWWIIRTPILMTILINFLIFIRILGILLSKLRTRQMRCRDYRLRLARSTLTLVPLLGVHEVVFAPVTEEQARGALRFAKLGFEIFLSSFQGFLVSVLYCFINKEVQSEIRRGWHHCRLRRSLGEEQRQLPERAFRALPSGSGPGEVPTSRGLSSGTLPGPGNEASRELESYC
Excerpt: as §1, §2

EC50 (Human GLP1R) [nM]	EC50 (Human GlucR) [nM]	EC50 (Human GIPr) [nM]	Structure (SMILES)
0.00791	13.1	215	CCCCCCCCCCCCCCCC(=O)NCCCCCC(=O)NCCCC[C@H](NC(=O)[C@H](CO)NC(=O)[C@H](CC(=O)O)NC(=O)[C@H](CC(C)C)NC(=O)[C@H](Cc1ccc(O)cc1)NC(=O)[C@H](CCC(=O)O)NC(=O)[C@H](CO)NC(=O)[C@H](Cc1ccc(O)cc1)NC(=O)[C@H](CC(=O)O)NC(=O)[C@H](CO)NC(=O)[C@@H](NC(=O)[C@H](Cc1ccccc1)NC(=O)[C@@H](NC(=O)CNC(=O)[C@H](CCC(=O)O)NC(=O)CNC(=O)[C@@H](N)Cc1c[nH]cn1)[C@@H](C)O)[C@@H](C)O)C(=O)N[C@@H](CCCNC(=N)N)C(=O)N[C@@H](C)C(=O)N[C@@H](CCCNC(=N)N)C(=O)N[C@@H](CC(=O)O)C(=O)N[C@@H](Cc1ccccc1)C(=O)N[C@H](C(=O)N[C@@H](CCC(=O)O)C(=O)N[C@@H](Cc1c[nH]c2ccccc12)C(=O)N[C@@H](CC(C)C)C(=O)N[C@@H](CCC(=O)O)C(=O)N[C@@H](CCCNC(=N)N)C(=O)NCC(=O)NCC(N)=O)C(C)C [g726] (H-HGEGTFTSDYSEYLDSK([Ahx-Palmitoyl])RARDFVEWLERGG-NH2; N-terminus assumed)
0.021	0.0089	94	CCCCCCCCCCCCCCCC(=O)NCCCCCC(=O)NCCCC[C@H](NC(=O)[C@H](CO)NC(=O)[C@H](CC(=O)O)NC(=O)[C@H](CC(C)C)NC(=O)[C@H](Cc1ccc(O)cc1)NC(=O)[C@H](CCC(=O)O)NC(=O)[C@H](CO)NC(=O)[C@H](Cc1ccc(O)cc1)NC(=O)[C@H](CC(=O)O)NC(=O)[C@H](CO)NC(=O)[C@@H](NC(=O)[C@H](Cc1ccccc1)NC(=O)[C@@H](NC(=O)CNC(=O)[C@H](CCC(N)=O)NC(=O)[C@H](CO)NC(=O)[C@@H](N)Cc1c[nH]cn1)[C@@H](C)O)[C@@H](C)O)C(=O)N[C@@H](CCCNC(=N)N)C(=O)N[C@@H](C)C(=O)N[C@@H](C)C(=O)N[C@@H](CC(=O)O)C(=O)N[C@@H](Cc1ccccc1)C(=O)N[C@H](C(=O)N[C@@H](C)C(=O)N[C@@H](Cc1c[nH]c2ccccc12)C(=O)N[C@@H](CC(C)C)C(=O)N[C@@H](CCC(=O)O)C(=O)N[C@@H](CCCNC(=N)N)C(=O)NCC(=O)NCC(N)=O)C(C)C [g818] (H-HSQGTFTSDYSEYLDSK([Ahx-Palmitoyl])RAADFVAWLERGG-NH2; N-terminus assumed)
0.11	0.0723	98	CCCCCCCCCCCCCCCC(=O)N[C@@H](CCC(=O)NCCCC[C@H](NC(=O)[C@H](CO)NC(=O)[C@H](CC(=O)O)NC(=O)[C@H](CC(C)C)NC(=O)[C@H](Cc1ccc(O)cc1)NC(=O)[C@H](CCCCN)NC(=O)[C@H](CO)NC(=O)[C@H](Cc1ccc(O)cc1)NC(=O)[C@H](CC(=O)O)NC(=O)[C@H](CO)NC(=O)[C@@H](NC(=O)[C@H](Cc1ccccc1)NC(=O)[C@@H](NC(=O)CNC(=O)[C@H](CCC(N)=O)NC(=O)CNC(=O)[C@@H](N)Cc1c[nH]cn1)[C@@H](C)O)[C@@H](C)O)C(=O)N[C@@H](CCCNC(=N)N)C(=O)N[C@@H](C)C(=O)N[C@@H](CCC(N)=O)C(=O)N[C@@H](CC(=O)O)C(=O)N[C@@H](Cc1ccccc1)C(=O)N[C@H](C(=O)N[C@@H](CCC(N)=O)C(=O)N[C@@H](Cc1c[nH]c2ccccc12)C(=O)N[C@@H](CC(C)C)C(=O)N[C@@H](CCC(=O)O)C(=O)N[C@@H](CCCNC(=N)N)C(=O)NCC(=O)NCC(N)=O)C(C)C)C(=O)O [g588]
0.0471	0.00105	57.4	CCCCCCCCCCCCCCCC(=O)N[C@@H](CCC(=O)NCCCC[C@H](NC(=O)[C@H](Cc1ccc(O)cc1)NC(=O)[C@H](CCCCN)NC(=O)[C@H](CO)NC(=O)[C@H](Cc1ccc(O)cc1)NC(=O)[C@H](CC(=O)O)NC(=O)[C@H](CO)NC(=O)[C@@H](NC(=O)[C@H](Cc1ccccc1)NC(=O)[C@@H](NC(=O)CNC(=O)[C@H](CCC(N)=O)NC(=O)[C@H](CO)NC(=O)[C@@H](N)Cc1c[nH]cn1)[C@@H](C)O)[C@@H](C)O)C(=O)N[C@@H](CC(=O)O)C(=O)N[C@@H](CO)C(=O)N[C@@H](CCCNC(=N)N)C(=O)N[C@@H](CCCNC(=N)N)C(=O)N[C@@H](C)C(=O)N[C@@H](CCCNC(=N)N)C(=O)N[C@@H](CC(=O)O)C(=O)N[C@@H](Cc1ccccc1)C(=O)N[C@H](C(=O)N[C@@H](CCC(=O)O)C(=O)N[C@@H](Cc1c[nH]c2ccccc12)C(=O)N[C@@H](CC(C)C)C(=O)N[C@@H](CCC(=O)O)C(=O)N[C@@H](C)C(=O)NCC(=O)NCC(N)=O)C(C)C)C(=O)O [g824] (H-HSQGTFTSDYSKYK([γGlu-Palmitoyl])DSRRARDFVEWLEAGG-NH2; N-terminus assumed)
0.0204	0.00253	0.998	CCCCCCCCCCCCCCCC(=O)N[C@@H](CCC(=O)NCCCC[C@H](NC(=O)[C@H](CC(=O)O)NC(=O)[C@H](CO)NC(=O)[C@@H](NC(=O)[C@H](Cc1ccccc1)NC(=O)[C@@H](NC(=O)CNC(=O)[C@H](CCC(N)=O)NC(=O)[C@H](CO)NC(=O)[C@@H](N)Cc1c[nH]cn1)[C@@H](C)O)[C@@H](C)O)C(=O)N[C@@H](CO)C(=O)N[C@@H](CCCCN)C(=O)N[C@@H](Cc1ccc(O)cc1)C(=O)N[C@@H](CC(C)C)C(=O)N[C@@H](CC(=O)O)C(=O)N[C@@H](CO)C(=O)N[C@@H](CCCNC(=N)N)C(=O)N[C@@H](CCCNC(=N)N)C(=O)N[C@@H](C)C(=O)N[C@@H](CCC(N)=O)C(=O)N[C@@H](CC(=O)O)C(=O)N[C@@H](Cc1ccccc1)C(=O)N[C@H](C(=O)N[C@@H](CCC(N)=O)C(=O)N[C@@H](Cc1c[nH]c2ccccc12)C(=O)N[C@@H](CC(C)C)C(=O)N[C@H](C(=O)N[C@@H](C)C(=O)NCC(=O)NCC(N)=O)C(C)C)C(C)C)C(=O)O [g715] (H-HSQGTFTSDK([γGlu-Palmitoyl])SKYLDSRRAQDFVQWLVAGG-NH2; N-terminus assumed)
0.292	0.184	1540	CCCCCCCCCCCCCCCC(=O)N[C@@H](CCC(=O)NCCCC[C@H](NC(=O)[C@H](CO)NC(=O)[C@H](CC(=O)O)NC(=O)[C@H](CC(C)C)NC(=O)[C@H](Cc1ccc(O)cc1)NC(=O)[C@H](CCC(=O)O)NC(=O)[C@H](CO)NC(=O)[C@H](Cc1ccc(O)cc1)NC(=O)[C@H](CC(=O)O)NC(=O)[C@H](CO)NC(=O)[C@@H](NC(=O)[C@H](Cc1ccccc1)NC(=O)[C@@H](NC(=O)CNC(=O)[C@H](CCC(N)=O)NC(=O)[C@H](CO)NC(=O)[C@@H](N)Cc1c[nH]cn1)[C@@H](C)O)[C@@H](C)O)C(=O)N[C@@H](CCCNC(=N)N)C(=O)N[C@@H](C)C(=O)N[C@@H](CCCNC(=N)N)C(=O)N[C@@H](CC(=O)O)C(=O)N[C@@H](Cc1ccccc1)C(=O)N[C@H](C(=O)N[C@@H](C)C(=O)N[C@@H](Cc1c[nH]c2ccccc12)C(=O)N[C@@H](CC(C)C)C(=O)N[C@@H](CCC(=O)O)C(=O)N[C@@H](CCCNC(=N)N)C(=O)NCC(=O)NCC(N)=O)C(C)C)C(=O)O [g772] (H-HSQGTFTSDYSEYLDSK([γGlu-Palmitoyl])RARDFVAWLERGG-NH2; N-terminus assumed)
0.0422	0.0277	40.7	CCCCCCCCCCCCCCCC(=O)N[C@@H](CCC(=O)NCCCC[C@H](NC(=O)[C@H](Cc1ccc(O)cc1)NC(=O)[C@H](CCC(=O)O)NC(=O)[C@H](CO)NC(=O)[C@H](Cc1ccc(O)cc1)NC(=O)[C@H](CC(=O)O)NC(=O)[C@H](CO)NC(=O)[C@@H](NC(=O)[C@H](Cc1ccccc1)NC(=O)[C@@H](NC(=O)CNC(=O)[C@H](CCC(N)=O)NC(=O)[C@H](CO)NC(=O)[C@@H](N)Cc1c[nH]cn1)[C@@H](C)O)[C@@H](C)O)C(=O)N[C@@H](CC(=O)O)C(=O)N[C@@H](CO)C(=O)N[C@@H](CCCNC(=N)N)C(=O)N[C@@H](CCCNC(=N)N)C(=O)N[C@@H](C)C(=O)N[C@@H](CCC(N)=O)C(=O)N[C@@H](CC(=O)O)C(=O)N[C@@H](Cc1ccccc1)C(=O)N[C@H](C(=O)N[C@@H](CCC(N)=O)C(=O)N[C@@H](Cc1c[nH]c2ccccc12)C(=O)N[C@@H](CC(C)C)C(=O)N[C@H](C(=O)N[C@@H](C)C(=O)NCC(=O)NCC(N)=O)C(C)C)C(C)C)C(=O)O [g731] (H-HSQGTFTSDYSEYK([γGlu-Palmitoyl])DSRRAQDFVQWLVAGG-NH2; N-terminus assumed)
0.098	0.0606	407	CCCCCCCCCCCCCCCC(=O)N[C@@H](CCC(=O)NCCCC[C@H](NC(=O)[C@H](CO)NC(=O)[C@H](CC(=O)O)NC(=O)[C@H](CC(C)C)NC(=O)[C@H](Cc1ccc(O)cc1)NC(=O)[C@H](CCCCN)NC(=O)[C@H](CO)NC(=O)[C@H](Cc1ccc(O)cc1)NC(=O)[C@H](CC(=O)O)NC(=O)[C@H](CO)NC(=O)[C@@H](NC(=O)[C@H](Cc1ccccc1)NC(=O)[C@@H](NC(=O)CNC(=O)[C@H](CCC(N)=O)NC(=O)CNC(=O)[C@@H](N)Cc1c[nH]cn1)[C@@H](C)O)[C@@H](C)O)C(=O)N[C@@H](CCCNC(=N)N)C(=O)N[C@@H](C)C(=O)N[C@@H](CCC(N)=O)C(=O)N[C@@H](CC(=O)O)C(=O)N[C@@H](Cc1ccccc1)C(=O)N[C@H](C(=O)N[C@@H](CCC(N)=O)C(=O)N[C@@H](Cc1c[nH]c2ccccc12)C(=O)N[C@@H](CC(C)C)C(=O)N[C@@H](CCC(=O)O)C(=O)N[C@@H](C)C(=O)NCC(=O)NCC(N)=O)C(C)C)C(=O)O [g512]

Reference: patent publication US20200354426A1 (MEDIMMUNE LIMITED, priority 2016, published 2020)
